# PMC6858350, “A common mechanism allows selective targeting of GluN2B subunit-containing N-methyl-D-aspartate receptors” (Communications Biology, 2019)
# Like-named read-outs stand apart in the source and are kept apart here.
# Assays:
# GluN1-1a WT/GluN2B E236A [1] = biological target: T1, GluN1-1a WT/GluN2B E236A (Rattus norvegicus, UniProt P35439+Q00960, E236A); test: cell-based
# GluN1-1a WT/GluN2B Q110A [2] = biological target: T2, GluN1-1a WT/GluN2B Q110A (Rattus norvegicus, UniProt P35439+Q00960, Q110A)
# GluN1-1a S132A/GluN2B WT [3] = biological target: T3, GluN1-1a S132A/GluN2B WT (Rattus norvegicus, UniProt P35439+Q00960, S132A)
# GluN1-1a Y109S/GluN2B WT [4] = biological target: T4, GluN1-1a Y109S/GluN2B WT (Rattus norvegicus, UniProt P35439+Q00960, Y109S); test: cell-based
# GluN1-1a F113S/GluN2B WT [5] = biological target: T5, GluN1-1a F113S/GluN2B WT (Rattus norvegicus, UniProt P35439+Q00960, F113S)
# GluN1-1a WT/GluN2B F114A [6] = biological target: T6, GluN1-1a WT/GluN2B F114A (Rattus norvegicus, UniProt P35439+Q00960, F114A)
# GluN1-1a Y109S/GluN2B WT [7] = biological target: T4, GluN1-1a Y109S/GluN2B WT
# GluN1-1a L135N/GluN2B WT [8] = biological target: T7, GluN1-1a L135N/GluN2B WT (Rattus norvegicus, UniProt P35439+Q00960, L135N)
# GluN1-1a WT/GluN2B F176Y [9] = biological target: T8, GluN1-1a WT/GluN2B F176Y (Rattus norvegicus, UniProt P35439+Q00960, F176Y); test: cell-based
# T8 sequence (Q00960 27-1482 F176Y, other chains not shown): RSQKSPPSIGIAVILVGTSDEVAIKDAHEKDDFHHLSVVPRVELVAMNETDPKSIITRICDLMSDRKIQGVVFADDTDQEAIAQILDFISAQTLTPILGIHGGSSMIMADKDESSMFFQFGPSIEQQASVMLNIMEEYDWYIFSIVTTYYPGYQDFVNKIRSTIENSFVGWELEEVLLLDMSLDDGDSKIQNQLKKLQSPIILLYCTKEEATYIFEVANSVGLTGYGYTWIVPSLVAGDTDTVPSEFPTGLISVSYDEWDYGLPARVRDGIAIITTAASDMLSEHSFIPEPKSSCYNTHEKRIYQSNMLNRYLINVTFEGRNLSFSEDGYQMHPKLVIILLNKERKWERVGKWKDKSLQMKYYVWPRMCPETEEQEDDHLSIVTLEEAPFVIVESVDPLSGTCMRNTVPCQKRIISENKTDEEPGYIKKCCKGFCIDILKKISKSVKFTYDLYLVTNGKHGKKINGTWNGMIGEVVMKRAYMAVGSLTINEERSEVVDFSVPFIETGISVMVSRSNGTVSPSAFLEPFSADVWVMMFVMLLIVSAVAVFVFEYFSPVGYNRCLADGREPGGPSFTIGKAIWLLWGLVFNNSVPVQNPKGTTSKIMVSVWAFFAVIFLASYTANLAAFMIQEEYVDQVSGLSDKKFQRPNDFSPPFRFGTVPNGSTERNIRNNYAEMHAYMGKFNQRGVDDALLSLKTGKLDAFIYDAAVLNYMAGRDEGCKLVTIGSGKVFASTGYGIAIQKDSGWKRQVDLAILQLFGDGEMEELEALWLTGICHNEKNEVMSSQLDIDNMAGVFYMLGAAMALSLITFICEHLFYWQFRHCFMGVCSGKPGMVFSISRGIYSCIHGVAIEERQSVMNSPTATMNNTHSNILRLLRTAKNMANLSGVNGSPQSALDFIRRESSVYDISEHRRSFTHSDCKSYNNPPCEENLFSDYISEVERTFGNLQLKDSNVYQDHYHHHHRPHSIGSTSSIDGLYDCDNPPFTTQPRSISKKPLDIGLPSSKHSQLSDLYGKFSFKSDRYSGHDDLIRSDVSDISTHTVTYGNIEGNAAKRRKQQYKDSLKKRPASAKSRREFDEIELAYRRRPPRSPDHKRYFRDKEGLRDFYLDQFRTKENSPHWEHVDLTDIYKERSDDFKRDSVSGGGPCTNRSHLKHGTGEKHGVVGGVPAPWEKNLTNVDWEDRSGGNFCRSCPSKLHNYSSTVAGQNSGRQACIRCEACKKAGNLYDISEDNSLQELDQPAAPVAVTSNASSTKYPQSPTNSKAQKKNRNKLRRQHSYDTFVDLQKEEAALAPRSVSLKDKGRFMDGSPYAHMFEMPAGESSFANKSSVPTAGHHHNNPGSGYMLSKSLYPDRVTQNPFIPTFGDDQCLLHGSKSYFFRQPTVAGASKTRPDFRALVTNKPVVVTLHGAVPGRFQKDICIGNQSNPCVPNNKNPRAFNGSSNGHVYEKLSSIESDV
# GluN1-1a WT/GluN2B E236A [10] = biological target: T1, GluN1-1a WT/GluN2B E236A
# GluN1-1a WT/GluN2B F176A [11] = biological target: T9, GluN1-1a WT/GluN2B F176A (Rattus norvegicus, UniProt P35439+Q00960, F176A)
# GluN1-1a WT/GluN2B I111A [12] = biological target: T10, GluN1-1a WT/GluN2B I111A (Rattus norvegicus, UniProt P35439+Q00960, I111A); test: cell-based
# GluN1-1a WT/GluN2B F114A [13] = biological target: T6, GluN1-1a WT/GluN2B F114A; test: cell-based
# GluN1-1a/GluN2C NMDAR [14] = biological target: T11, GluN1-1a/GluN2C NMDAR (Rattus norvegicus, UniProt P35439+Q00961); test: cell-based; settings: read-out: ion current inhibition % ± SEM, GluN2C
# GluN1-1a S132A/GluN2B WT [15] = biological target: T3, GluN1-1a S132A/GluN2B WT; test: cell-based
# GluN1-1a/GluN2A NMDAR = GluN1-1a/GluN2A NMDAR (Rattus norvegicus, UniProt P35439+Q00959); test: cell-based; settings: read-out: ion current inhibition % ± SEM, GluN2A
# GluN1-1a F113S/GluN2B WT [16] = biological target: T5, GluN1-1a F113S/GluN2B WT; test: cell-based
# GluN1-1a WT/GluN2B Q110A [17] = biological target: T2, GluN1-1a WT/GluN2B Q110A; test: cell-based
# GluN1-1a WT/GluN2B I111A [18] = biological target: T10, GluN1-1a WT/GluN2B I111A
# GluN1-1a WT/GluN2B F176A [19] = biological target: T9, GluN1-1a WT/GluN2B F176A; test: cell-based
# GluN1-1a/GluN2C NMDAR [20] = biological target: T11, GluN1-1a/GluN2C NMDAR; settings: from inhibition at 10 µM (GluN2C, GluN2D) versus IC50 at GluN2B
# GluN1-1a WT/GluN2B F176Y [21] = biological target: T8, GluN1-1a WT/GluN2B F176Y
# [22] = biological target: GluN1-1a/GluN2B NMDAR (wildtype) (Rattus norvegicus, UniProt P35439+Q00960); type: cell-based; settings: for p (slope of the dose-response curve) / A2 ± SE (maximum inhibition from dose-response curve): −70 mV; for A2 ± SE (maximum inhibition from dose-response curve): flexible A2; for IC50 shift compared to rac-1: wildtype GluN1-1a/GluN2B, IC50 increase relative to rac-1
# Sequence of GluN1-1a/GluN2B NMDAR (wildtype) (Q00960 27-1482, other chains not shown): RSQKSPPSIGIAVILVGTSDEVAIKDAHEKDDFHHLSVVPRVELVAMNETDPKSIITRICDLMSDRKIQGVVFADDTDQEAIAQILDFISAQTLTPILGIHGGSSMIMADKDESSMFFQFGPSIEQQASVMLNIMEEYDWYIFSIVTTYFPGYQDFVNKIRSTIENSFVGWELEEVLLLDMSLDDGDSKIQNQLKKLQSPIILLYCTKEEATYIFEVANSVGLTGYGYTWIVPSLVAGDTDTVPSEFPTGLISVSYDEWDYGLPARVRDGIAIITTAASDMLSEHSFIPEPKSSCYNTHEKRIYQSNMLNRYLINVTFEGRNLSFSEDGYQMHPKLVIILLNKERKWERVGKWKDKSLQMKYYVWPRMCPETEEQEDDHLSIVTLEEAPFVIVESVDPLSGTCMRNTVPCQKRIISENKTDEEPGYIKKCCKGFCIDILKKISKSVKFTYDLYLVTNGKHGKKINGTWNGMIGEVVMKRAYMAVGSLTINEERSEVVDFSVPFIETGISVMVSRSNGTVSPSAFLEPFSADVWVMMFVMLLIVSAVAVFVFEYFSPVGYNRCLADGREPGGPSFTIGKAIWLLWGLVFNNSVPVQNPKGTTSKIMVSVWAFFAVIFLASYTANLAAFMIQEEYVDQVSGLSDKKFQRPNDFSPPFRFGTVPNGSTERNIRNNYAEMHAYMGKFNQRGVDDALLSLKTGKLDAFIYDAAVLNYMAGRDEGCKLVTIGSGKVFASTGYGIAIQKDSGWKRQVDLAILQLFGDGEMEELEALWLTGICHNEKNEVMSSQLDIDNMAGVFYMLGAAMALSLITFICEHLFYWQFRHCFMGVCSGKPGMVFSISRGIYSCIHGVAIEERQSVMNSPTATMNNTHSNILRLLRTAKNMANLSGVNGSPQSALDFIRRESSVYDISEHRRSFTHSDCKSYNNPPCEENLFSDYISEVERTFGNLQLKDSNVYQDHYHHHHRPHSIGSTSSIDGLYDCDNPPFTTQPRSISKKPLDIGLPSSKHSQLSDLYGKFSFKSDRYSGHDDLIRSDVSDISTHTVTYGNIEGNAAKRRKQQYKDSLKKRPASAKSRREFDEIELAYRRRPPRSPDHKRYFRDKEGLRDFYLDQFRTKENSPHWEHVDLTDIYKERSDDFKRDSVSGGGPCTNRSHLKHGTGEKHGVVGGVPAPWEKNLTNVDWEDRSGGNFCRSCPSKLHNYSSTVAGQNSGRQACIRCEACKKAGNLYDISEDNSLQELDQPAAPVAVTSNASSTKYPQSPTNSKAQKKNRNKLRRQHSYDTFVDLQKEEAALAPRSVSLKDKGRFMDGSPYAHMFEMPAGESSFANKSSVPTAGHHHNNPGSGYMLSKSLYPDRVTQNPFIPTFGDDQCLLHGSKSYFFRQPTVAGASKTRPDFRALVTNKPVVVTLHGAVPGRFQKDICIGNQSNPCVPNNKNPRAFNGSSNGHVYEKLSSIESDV
# GluN1-1a/GluN2D NMDAR = GluN1-1a/GluN2D NMDAR (Rattus norvegicus, UniProt P35439+Q62645); test: cell-based; settings: read-out: ion current inhibition % ± SEM, GluN2D
# GluN1-1a L135N/GluN2B WT [23] = biological target: T7, GluN1-1a L135N/GluN2B WT; test: cell-based
# [24] = TEVC, holding potential −70 mV, 10 µM glycine and 10 µM (S)-glutamate, wildtype, read-out: IC50 ± SE
# T1 sequence (Q00960 27-1482 E236A, other chains not shown): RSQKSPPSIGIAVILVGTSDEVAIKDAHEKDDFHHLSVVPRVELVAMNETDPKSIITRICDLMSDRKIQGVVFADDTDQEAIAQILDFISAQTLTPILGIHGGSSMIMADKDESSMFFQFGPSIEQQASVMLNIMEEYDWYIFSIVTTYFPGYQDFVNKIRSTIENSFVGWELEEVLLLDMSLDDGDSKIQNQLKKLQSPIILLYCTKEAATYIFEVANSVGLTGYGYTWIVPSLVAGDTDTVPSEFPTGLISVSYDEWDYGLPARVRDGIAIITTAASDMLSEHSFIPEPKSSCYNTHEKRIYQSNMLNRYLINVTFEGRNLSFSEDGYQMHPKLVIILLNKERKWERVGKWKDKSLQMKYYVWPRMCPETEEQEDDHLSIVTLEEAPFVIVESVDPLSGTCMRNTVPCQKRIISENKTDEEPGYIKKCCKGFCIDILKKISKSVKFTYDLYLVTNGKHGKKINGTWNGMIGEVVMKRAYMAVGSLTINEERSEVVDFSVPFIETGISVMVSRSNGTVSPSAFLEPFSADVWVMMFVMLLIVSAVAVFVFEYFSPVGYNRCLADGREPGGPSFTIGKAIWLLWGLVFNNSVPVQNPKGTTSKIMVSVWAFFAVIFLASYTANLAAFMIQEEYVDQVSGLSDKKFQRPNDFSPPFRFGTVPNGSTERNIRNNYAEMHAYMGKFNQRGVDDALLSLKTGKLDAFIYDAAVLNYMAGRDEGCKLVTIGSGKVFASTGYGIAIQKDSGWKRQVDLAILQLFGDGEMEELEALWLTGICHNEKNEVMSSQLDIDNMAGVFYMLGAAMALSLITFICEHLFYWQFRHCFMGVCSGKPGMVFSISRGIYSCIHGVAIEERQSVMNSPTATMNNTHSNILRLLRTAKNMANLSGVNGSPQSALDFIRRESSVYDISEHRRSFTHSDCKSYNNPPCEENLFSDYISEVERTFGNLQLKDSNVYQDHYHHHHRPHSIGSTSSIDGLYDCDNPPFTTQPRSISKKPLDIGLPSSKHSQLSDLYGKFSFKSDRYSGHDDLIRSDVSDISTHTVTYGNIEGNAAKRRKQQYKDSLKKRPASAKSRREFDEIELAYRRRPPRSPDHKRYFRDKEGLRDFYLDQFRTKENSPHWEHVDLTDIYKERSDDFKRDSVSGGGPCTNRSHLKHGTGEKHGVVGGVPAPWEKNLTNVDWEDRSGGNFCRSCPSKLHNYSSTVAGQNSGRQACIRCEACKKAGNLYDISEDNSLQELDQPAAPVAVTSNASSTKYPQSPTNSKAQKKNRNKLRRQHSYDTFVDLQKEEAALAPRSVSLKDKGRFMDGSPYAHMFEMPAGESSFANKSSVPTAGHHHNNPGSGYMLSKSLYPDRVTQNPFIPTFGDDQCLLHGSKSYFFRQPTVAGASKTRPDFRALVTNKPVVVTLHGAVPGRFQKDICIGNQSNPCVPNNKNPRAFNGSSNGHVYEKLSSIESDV
compound,measurement,setting,value
C[C@@H]1[C@H](O)c2ccc(O)cc2CCN1CCCCc1ccccc1 [compound 2],IC50,GluN1-1a WT/GluN2B E236A [1],0.108 ± 0.016 µM
same,p (slope),GluN1-1a WT/GluN2B Q110A [2]; GluN2B Q110A,1.79
same,A2 ± SE,"GluN1-1a WT/GluN2B Q110A [2]; GluN2B Q110A, flexible A2",95 ± 1%
same,IC50 shift factor,"GluN1-1a WT/GluN2B Q110A [2]; mutant IC50 / wildtype IC50, GluN2B Q110A",1.4
same,p (slope),GluN1-1a S132A/GluN2B WT [3]; GluN1-1a S132A,0.78
same,A2 ± SE,"GluN1-1a S132A/GluN2B WT [3]; GluN1-1a S132A, flexible A2",100 ± 3%
same,IC50 shift factor,"GluN1-1a S132A/GluN2B WT [3]; mutant IC50 / wildtype IC50, GluN1-1a S132A",4.3
same,IC50,GluN1-1a Y109S/GluN2B WT [4],0.14 ± 0.019 µM
same,p (slope),GluN1-1a F113S/GluN2B WT [5]; GluN1-1a F113S,0.57
same,A2 ± SE,"GluN1-1a F113S/GluN2B WT [5]; GluN1-1a F113S, flexible A2",100 ± 3%
same,IC50 shift factor,"GluN1-1a F113S/GluN2B WT [5]; mutant IC50 / wildtype IC50, GluN1-1a F113S",0.8
same,p (slope),GluN1-1a WT/GluN2B F114A [6]; GluN2B F114A,1.03
same,"A2, fixed-to-wildtype (*)","GluN1-1a WT/GluN2B F114A [6]; GluN2B F114A, maximum inhibition fixed to wildtype value",97%
same,IC50 shift factor,"GluN1-1a WT/GluN2B F114A [6]; mutant IC50 / wildtype IC50, GluN2B F114A",7.3
same,p (slope),GluN1-1a Y109S/GluN2B WT [7]; GluN1-1a Y109S,0.86
same,A2 ± SE,"GluN1-1a Y109S/GluN2B WT [7]; GluN1-1a Y109S, flexible A2",96 ± 2%
same,IC50 shift factor,"GluN1-1a Y109S/GluN2B WT [7]; mutant IC50 / wildtype IC50, GluN1-1a Y109S",1.5
same,p (slope),GluN1-1a L135N/GluN2B WT [8]; GluN1-1a L135N,0.72
same,A2 ± SE,"GluN1-1a L135N/GluN2B WT [8]; GluN1-1a L135N, flexible A2",100 ± 5%
same,IC50 shift factor,"GluN1-1a L135N/GluN2B WT [8]; mutant IC50 / wildtype IC50, GluN1-1a L135N",9.2
same,IC50,GluN1-1a WT/GluN2B F176Y [9],0.084 ± 0.009 µM
same,p (slope),GluN1-1a WT/GluN2B E236A [10]; GluN2B E236A,1.09
same,A2 ± SE,"GluN1-1a WT/GluN2B E236A [10]; GluN2B E236A, flexible A2",95 ± 3%
same,IC50 shift factor,"GluN1-1a WT/GluN2B E236A [10]; mutant IC50 / wildtype IC50, GluN2B E236A",1.2
same,p (slope),GluN1-1a WT/GluN2B F176A [11]; GluN2B F176A,0.94
same,"A2, fixed-to-wildtype (*)","GluN1-1a WT/GluN2B F176A [11]; GluN2B F176A, maximum inhibition fixed to wildtype value",97%
same,IC50 shift factor,"GluN1-1a WT/GluN2B F176A [11]; mutant IC50 / wildtype IC50, GluN2B F176A",19.9
same,IC50,GluN1-1a WT/GluN2B I111A [12],0.38 ± 0.082 µM
same,IC50,GluN1-1a WT/GluN2B F114A [13],0.667 ± 0.09 µM
same,inhibition at 10 µM,GluN1-1a/GluN2C NMDAR [14],56 ± 2%
same,IC50,GluN1-1a S132A/GluN2B WT [15],0.387 ± 0.057 µM
same,inhibition at 10 µM,GluN1-1a/GluN2A NMDAR,15 ± 5%
same,IC50,GluN1-1a F113S/GluN2B WT [16],0.076 ± 0.017 µM
same,IC50,GluN1-1a WT/GluN2B Q110A [17],0.13 ± 0.006 µM
same,p (slope),GluN1-1a WT/GluN2B I111A [18]; GluN2B I111A,0.86
same,A2 ± SE,"GluN1-1a WT/GluN2B I111A [18]; GluN2B I111A, flexible A2",96 ± 4%
same,IC50 shift factor,"GluN1-1a WT/GluN2B I111A [18]; mutant IC50 / wildtype IC50, GluN2B I111A",4.2
same,IC50,GluN1-1a WT/GluN2B F176A [19],1.81 ± 0.127 µM
same,lower activity at GluN2C and GluN2D than at GluN2B subunit-containing NMDARs,GluN1-1a/GluN2C NMDAR [20],at least 100 fold
same,p (slope),GluN1-1a WT/GluN2B F176Y [21]; GluN2B F176Y,1.00
same,"A2, fixed-to-wildtype (*)","GluN1-1a WT/GluN2B F176Y [21]; GluN2B F176Y, maximum inhibition fixed to wildtype value",97%
same,IC50 shift factor,"GluN1-1a WT/GluN2B F176Y [21]; mutant IC50 / wildtype IC50, GluN2B F176Y",0.9
same,IC50,[22],0.091 ± 0.007 µM
same,p (slope of the dose-response curve),"[22]; TEVC, wildtype",1.08
same,A2 ± SE (maximum inhibition from dose-response curve),"[22]; TEVC, wildtype",97 ± 2%
same,inhibition at 10 µM,"[22]; read-out: ion current inhibition % ± SEM, GluN2B",95 ± 1%
same,inhibition at 10 µM,GluN1-1a/GluN2D NMDAR,55 ± 2%
same,IC50,GluN1-1a L135N/GluN2B WT [23],0.835 ± 0.184 µM
Oc1ccc2c(c1)CCN(CCCCc1ccccc1)CC2 [compound 3],IC50,[22]; [24],3.37 ± 0.926 µM
same,p (slope of the dose-response curve),"[22]; TEVC, wildtype",0.93
same,A2 ± SE (maximum inhibition from dose-response curve),"[22]; TEVC, wildtype",92 ± 8%
same,IC50 shift compared to rac-1,[22],36 fold
COc1ccc2c(c1)CCN(CCCCc1ccccc1)CC2O (stereo not shown) [compound 4],IC50,[22]; [24],1.3 ± 0.483 µM
same,p (slope of the dose-response curve),"[22]; TEVC, wildtype",0.70
same,A2 ± SE (maximum inhibition from dose-response curve),"[22]; TEVC, wildtype",100 ± 9%
same,IC50 shift compared to rac-1,[22],14 fold
c1ccc(CCCCN2CCc3ccccc3CC2)cc1 [compound 5],Inhibition (% ± SEM) of ion flux,"[22]; compound concentration 30 µM, wildtype",almost inactive
same,inhibition at 30 µM,"[22]; compound concentration 30 µM, wildtype, read-out: Inhibition (% ± SEM) of ion flux",9 ± 2%
